# Reference: patent publication US20040110124A1, “Method of enhancing radiation resistance of normal cells” (priority 2002, published 2004)
# What was measured:
# Type in all cases: cell-based
# Rat-1 cells = test: Membrane potential recorded with fluorescent probe bis-oxonol
# Procedure: FIG. 1. Fluorescence measurement of Rat-1 cells before (Line A) and after (Line B) valinomycin (1.0 μM) treatment.
# (§1) Three normal cell lines (Rat-1, a fibroblast cell line; MS-1, an endothelial cell line and MDCK, a epithelial cell line) were studied. All three cell lines were cultured in Dulbecco's modified Eagle medium supplemented with 10% fetal calf serum, 100 U/ml penicillin and 100 ug/ml streptomycin (Gibco BRL, Gaithersburg, Md.) at 37° C. with 5% CO2. Cells were irradiated with a ^137Cs source at a dose rate of 300 cGy/min, and the viability of cells was measured by the MTT assay. Valinomycin was used as an agent to hyperpolarize the plasma membrane. The membrane potential was recorded with a fluorescent probe bis-oxonol, a negatively charged potential-sensitive fluorescent dye, which is distributed across the plasma membrane. Binding of this probe to intracellular components is dependent upon the membrane potential.
# Rat-1 fibroblast cells = test: Cell survival after irradiation, MTT assay, normal fibroblast cells; conditions: light or radiation study, Rat-1, irradiated at 20 Gy, 1.0 μM valinomycin for 2 hours, 25% without valinomycin, read-out: relative survival (% of control)
# Procedure: (§2) FIG. 2. Effect of valinomycin on radiation response of normal fibroblast cells. Rat-1 fibroblast cells were irradiated with 0-20 Gy in presence or absence of valinomycin. Valinomycin (0.01-1.0 μM) was added in the growth media immediately prior to irradiation, and removed at 2 hours or 3 days post irradiation. Three days after irradiation, cell survival was assessed by using the MTT assay.
# as §1
# MS1 endothelial cells = test: Cell survival after irradiation, MTT assay, normal endothelial cells; conditions: light or radiation study, MS-1, irradiated at 20 Gy, 1.0 μM valinomycin for 2 hours, 45% without valinomycin, read-out: relative survival (% of control)
# Procedure: (§3) FIG. 3. Effect of valinomycin on radiation response of normal endothelial cells. MS1 endothelial cells were irradiated with 0-20 Gy in the presence or absence of valinomycin. Valinomycin (0.01-1.0 μM) was added in the growth media immediately prior to irradiation, and removed at 2 hours or 3 days post irradiation. Three days after irradiation, cell survival was assessed by using the MTT assay.
# as §1
# MDCK epithelial cells = test: Cell survival after irradiation, MTT assay, normal epithelial cells; conditions: Canis lupus familiaris, light or radiation study, irradiated at 20 Gy, 1.0 μM valinomycin for 2 hours, 58% without valinomycin, read-out: relative survival (% of control)
# Procedure: FIG. 4. Effect of valinomycin on radiation response of normal epithelial cells. MDCK epithelial cells were irradiated with 0-20 Gy in the presence or absence of valinomycin. Valinomycin (0.01-1.0 μM) was added in the growth media immediately prior to irradiation, and removed at 2 hours or 3 days post irradiation. Three days after irradiation, cell survival was assessed by using the MTT assay.
# as §1
# [1] = tested on: Rat-1, MS-1 and MDCK cells; test: Cell survival after irradiation, MTT assay, all three normal cell lines together; conditions: valinomycin 0.01 μM to 1.0 μM
# Procedure: as §2, §3
# FIG. 4. Effect of valinomycin on radiation response of normal epithelial cells. […] Three days after irradiation, cell survival was assessed by using the MTT assay.
# Three normal cell lines (Rat-1, a fibroblast cell line; MS-1, an endothelial cell line and MDCK, a epithelial cell line) were studied. […] Cells were irradiated with a ^137Cs source at a dose rate of 300 cGy/min, and the viability of cells was measured by the MTT assay. […] The membrane potential was recorded with a fluorescent probe bis-oxonol, a negatively charged potential-sensitive fluorescent dye, which is distributed across the plasma membrane. […]
smiles,measurement,setting,value
CC(C)[C@@H]1NC(=O)[C@H](C)OC(=O)[C@@H](C(C)C)NC(=O)[C@@H](C(C)C)OC(=O)[C@H](C(C)C)NC(=O)[C@H](C)OC(=O)[C@@H](C(C)C)NC(=O)[C@@H](C(C)C)OC(=O)[C@H](C(C)C)NC(=O)[C@H](C)OC(=O)[C@@H](C(C)C)NC(=O)[C@@H](C(C)C)OC1=O [valinomycin],"fluorescent reading, plasma membrane polarization","Rat-1 cells; valinomycin 1.0 μM, incubation 2 hours, Rat-1 cells (FIG. 1)",decrease in fluorescent reading
same,decrease of intracellular fluorescence (bis-oxonol),Rat-1 cells; valinomycin 0.01-1 nM for 2 hours or 3 days,55-60%
same,intracellular fluorescence after valinomycin treatment,"Rat-1 cells; valinomycin 0.01-1 nM for 2 hours or 3 days, 0.44-0.5 prior to treatment",0.18-0.20
same,activity at 1 µM,Rat-1 fibroblast cells,67%
same,activity at 1 µM,MS1 endothelial cells,92%
same,activity at 1 µM,MDCK epithelial cells,82%
same,radiation protective effect across concentrations,[1],very similar radiation protective effects
